For test [1], the species on record is Sus scrofa. Description: Inhibition of pig lung ACE at 100 nmol/L assessed as enzyme restrain rate. Set-up: scale not given: the % may be the effect or the level left.
Test [2] is filed under the species Sus scrofa. Description: Inhibition of pig lung ACE at 100 pmol/L assessed as enzyme restrain rate. The arrangement: scale not given: the % may be the effect or the level left.
Test [3] is filed under the species Sus scrofa. Description: Inhibition of pig lung ACE at 100 umol/L assessed as enzyme restrain rate. Set-up: scale not given: the % may be the effect or the level left.
For test [4], the species on record is Sus scrofa. Description: Inhibition of pig lung ACE at 10 pmol/L assessed as enzyme restrain rate. Set-up: scale not given: the % may be the effect or the level left.
The species named for test [5] is Sus scrofa. Description: Inhibition of pig lung ACE at 1 umol/L assessed as enzyme restrain rate. The arrangement: scale not given: the % may be the effect or the level left.
In test [6] the test system is Rattus norvegicus. Description: Acute antihypertensive activity in two-kidney one-clip renal hypertensive rat assessed as reduction in systolic arterial pressure at 100 mg/kg/day. The test is classed as functional, organism-based.
The species entered for test [7] is Sus scrofa. Description: Inhibition of pig lung ACE at 1 pmol/L assessed as enzyme restrain rate. The arrangement: scale not given: the % may be the effect or the level left.
For test [8], the species on record is Sus scrofa. Description: Inhibition of pig lung ACE at 10 nmol/L assessed as enzyme restrain rate. Set-up: scale not given: the % may be the effect or the level left.
The test system of test [9] is Rattus norvegicus. Description: Acute antihypertensive activity in two-kidney one-clip renal hypertensive rat assessed as reduction in diastolic arterial pressure at 100 mg/kg/day. The test is classed as functional, organism-based.
For test [10], the species on record is Sus scrofa. Nature of the test: Inhibition of pig lung ACE at 10 umol/L assessed as enzyme restrain rate. Set-up: scale not given: the % may be the effect or the level left.

The source made the active and inactive calls. No cut-off for these calls is given here.

`CC1OCc2c(ccc(O)c2O)C1=O` (racemic): the Activity in the test filed under Sus scrofa [1] is 74%; in the test filed under Sus scrofa [2], 44%; in the test filed under Sus scrofa [3], 77%; in the test listed under Sus scrofa [4], 41%; in the test listed under Sus scrofa [5], 61%; in the test listed under Sus scrofa [7], 34%. Further, the values for the Activity in the test filed under Sus scrofa [8] and in the test filed under Sus scrofa [10] were 87% and 61%, respectively. The result with Rattus norvegicus [6] and in the test with Rattus norvegicus [9] was Active.
Turning to `C[C@H](CS)C(=O)N1CCC[C@H]1C(=O)O`, the Activity in the test filed under Sus scrofa [1] was determined as 97%; in the test filed under Sus scrofa [2], 48%; in the test filed under Sus scrofa [3], 94%; in the test filed under Sus scrofa [4] it was 47%; in the test filed under Sus scrofa [5], 95%; in the test filed under Sus scrofa [7], 42%. The values for the Activity in the test filed under Sus scrofa [8] and in the test filed under Sus scrofa [10] were 96% and 94%, respectively.
